The target in the assay is T1, KRAS-G12D protein (Homo sapiens, UniProt P01116, G12D).
T1 construct: host or cells: Aspc-1 cells
As to the kind of experiment: KRAS-G12D protein degradation study in Aspc-1 cells (western blot). Format: cell-based. The settings on record: for inhibition at 0.1 µM / inhibition at 1 µM: ASPC1, 24 h, 24 hours, read-out: Rate of protein degradation (KRAS^G12D); for inhibition at 0.1 µM: Aspc-1 cells treated with 0.1 μM compound; for inhibition at 1 µM: Aspc-1 cells treated with 1 μM compound. The method, then:
Aspc-1 (Cobioer, CBP60546) cells in exponential growth phase were inoculated on a 6-well cell culture plate (Corning, 3516) at density of 1E6/well; and cells in the plate were cultured in 37° C. incubator containing 5% carbon dioxide. The next day, test compounds were dissolved in DMSO (Sigma, RNBF5902) for the preparation of a 10 mM concentration stock solution. The stock solution was diluted with complete medium (RPMI-1640 supplemented with 10% fetal bovine serum, 1% penicillin-streptomycin), yielding working solutions of various concentrations. The plate, after the addition of compounds, was placed in a 5% carbon dioxide incubator, and incubated at 37° C. for 24 hours (final DMSO concentration was 0.1%). The plate was then removed from the incubator, and the cells were washed twice with precooled PBS (Gibco, 14190250), followed by addition of 80 μL RIPA lysis buffer (containing protease inhibitor (Invitrogen™, AM2696)) to each well. The adherent cells were scraped off with a cell scraper, and the cell lysate was transferred to a 1.5 mL centrifuge tube followed with a 30-minute incubation on ice. The lysate was then clarified with centrifugation at 14000 rpm for 10 min at 4° C. The supernatant was transferred into a new 1.5 mL centrifuge tube, and protein concentration was measured with BCA protein detection kit (Thermo Fisher, 23225). KRAS-G12D protein level was assessed by western blot.
A mixture of cell lysate (40 μL) and loading buffer (10 μL 5×SDS (Beyotime, P0015L)) was denatured in a water bath at 95° C. for 10 min. The denatured protein sample, at 30 μL/well, was loaded into the corresponding well of a 4-20% Bis-Tris gel (Kingsley, M00656). Protein samples were initially electrophoresed at 80 V for 30 minutes, followed by 120 V for 40 minutes, until the bromophenol blue strip ran to an appropriate position. After electrophoresis, iBlot2 (Life Technologies, IB21001) was used to transfer the separated samples onto PVDF film. The PVDF membrane was washed with double-distilled water and then blocked in TBST (Thermo Scientific, 28360) buffer containing 5% non-fat milk, for 2 hours. Blocked membrane was rinsed with tris-buffered saline tween-20 (Thermo Scientific, 28360, TBST) three times, 10 minutes each. Membrane was then incubated with 1:1000 diluted KRAS primary antibody (CST, cat #14429S) overnight at 4° C. Membrane was rinsed as described previously followed by 1 hour incubation of secondary antibody at room temperature. After washing the film three times with TBST, ECL color developing solution was applied, and image was captured with Biorad Chemi Doc gel imager. The band gray value was quantified (Image Lab), and protein degradation level was calculated according to the following formula:
Level of RAS protein expression=(RAS-compound/GAPDH)/(RAS-DMSO/GAPDH)
Level of degradation (%)=(1−Rate of RAS protein expression)×100
The symbols “−”, “+”, “++”, and “+++” indicate that the degradation level of KRAS^G12D protein induced by the test compounds was 10% or less, 11 to 30%, 31 to 60%, and greater than 60%, respectively.
Half-maximum degradation concentrations (DC50s) of exemplary test compounds were calculated using GraphPad Prism and their values are shown in Table 6. The symbols “++++”, “+++”, “++” and “+” indicate DC50 equal or less than 10 nM, 11-50 nM, 51-100 nM, and 101-200 nM, respectively.

The structures appear in SMILES notation. Bounds are passed on as bounds.

T1 sequence (P01116 1-188 isoform P01116-2 G12D): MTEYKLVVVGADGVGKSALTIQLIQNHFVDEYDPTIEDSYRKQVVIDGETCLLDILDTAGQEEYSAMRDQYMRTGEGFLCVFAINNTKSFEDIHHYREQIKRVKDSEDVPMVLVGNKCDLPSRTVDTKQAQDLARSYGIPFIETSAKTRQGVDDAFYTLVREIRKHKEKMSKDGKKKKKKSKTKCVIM

For `C#Cc1c(F)ccc2cc(O)cc(-c3ncc4c(N5CC6CCC(C5)N6)nc(OC[C@@H]5C[C@@H](NC(=O)C6(C(=O)N7CCC(c8ccc9c(C%10CCC(=O)NC%10=O)nn(C)c9c8)CC7)CC6)CN5C)nc4c3F)c12` (stereo in doubt) [Compound 96], the inhibition at 0.1 µM lay within 11 to 30%. As for `C#Cc1c(F)ccc2cc(O)cc(-c3ncc4c(N5CC6CCC(C5)N6)nc(OC5CCN(CCCCCCCCCC(=O)N6CCN(C(=O)C[C@H](NC(=O)[C@@H]7CC(O)CN7C(=O)[C@@H](NC(=O)C7(F)CC7)C(C)(C)C)c7ccc(-c8scnc8C)cc7)CC6)C5)nc4c3F)c12` (stereo in doubt) [Compound 105], the inhibition at 0.1 µM fell in the range of 31 to 60%.

Take `C#Cc1c(F)ccc2cc(O)cc(-c3ncc4c(N5CC6CCC(C5)N6)nc(OCCCN5CCN(CCCCCC(=O)N[C@H](C(=O)N6C[C@H](O)C[C@H]6C(=O)NCc6ccc(-c7scnc7C)cc6)C(C)(C)C)CC5)nc4c3F)c12` [Compound 28]: the inhibition at 1 µM lay in the range of 11 to 30%. Same read-out and setting: the figure for `C#Cc1c(F)ccc2cc(O)cc(-c3ncc4c(N5CC6CCC(C5)N6)nc(OCCCN5CCN(CCCC(=O)N[C@H](C(=O)N6C[C@H](O)C[C@H]6C(=O)NCc6ccc(-c7scnc7C)cc6)C(C)(C)C)CC5)nc4c3F)c12` [Compound 30] is 11 to 30%. On the same count and under the same terms, for `C#Cc1c(F)ccc2cc(O)cc(-c3ncc4c(N5CC6CCC(C5)N6)nc(OC5CCN(CCOCCOCC(=O)N[C@H](C(=O)N6C[C@H](O)C[C@H]6C(=O)NCc6ccc(-c7scnc7C)cc6)C(C)(C)C)CC5)nc4c3F)c12` [Compound 53] the value was 11 to 30%; for `C#Cc1c(F)ccc2cc(O)cc(-c3ncc4c(N5CC6CCC(C5)N6)nc(OC5CCN(CCOCCOCCOCC(=O)N[C@H](C(=O)N6C[C@H](O)C[C@H]6C(=O)NCc6ccc(-c7scnc7C)cc6)C(C)(C)C)CC5)nc4c3F)c12` [Compound 54], not above 10%. Turning to `C#Cc1c(F)ccc2cc(O)cc(-c3ncc4c(N5CC6CCC(C5)N6)nc(OC5CCN(CCCCCCCCCCC(=O)N[C@H](C(=O)N6C[C@H](O)C[C@H]6C(=O)N[C@@H](C)c6ccc(-c7scnc7C)cc6)C(C)(C)C)C5)nc4c3F)c12` (some centres unmarked) [Compound 55], the inhibition at 0.1 µM is more than 60% and the inhibition at 1 µM was more than 60%. For the compound `C#Cc1c(F)ccc2cc(O)cc(-c3ncc4c(N5CC6CCC(C5)N6)nc(OCC5CCN(CCCCCCCCCCC(=O)N[C@H](C(=O)N6C[C@H](O)C[C@H]6C(=O)N[C@@H](C)c6ccc(-c7scnc7C)cc6)C(C)(C)C)C5)nc4c3F)c12` (some centres unmarked) [Compound 56], the inhibition at 0.1 µM was in the range of 31 to 60% and the inhibition at 1 µM was more than 60%. Regarding `C#Cc1c(F)ccc2cc(O)cc(-c3ncc4c(N5CC6CCC(C5)N6)nc(OCC5CCN(CCCCCCCCCCC(=O)N6CCC(c7ccc8c(C9CCC(=O)NC9=O)nn(C)c8c7)CC6)C5)nc4c3F)c12` (centres unmarked) [Compound 57], the inhibition at 0.1 µM was more than 60% and the inhibition at 1 µM is more than 60%. Regarding `CCc1c(F)ccc2cc(O)cc(-c3ncc4c(N5CC6CCC(C5)N6)nc(OCC56CCCN5[C@@H](COC(=O)NCCOCCOCCC(=O)N[C@H](C(=O)N5C[C@H](O)C[C@H]5C(=O)N[C@@H](C)c5ccc(-c7scnc7C)cc5)C(C)(C)C)CC6)nc4c3F)c12` (some centres unmarked) [Compound 58], the inhibition at 0.1 µM lay within 11 to 30% and the inhibition at 1 µM lay within 31 to 60%. As for `C#Cc1c(F)ccc2cc(O)cc(-c3ncc4c(N5CC6CCC(C5)N6)nc(OCCCN5CCN(CC(=O)N6CCN(c7ccc8c(c7)C(=O)N(C7CCC(=O)NC7=O)C8=O)CC6)CC5)nc4c3F)c12` (centres unmarked) [Compound 59], the inhibition at 0.1 µM is not above 10% and the inhibition at 1 µM was not above 10%. Regarding `C#Cc1c(F)ccc2cc(O)cc(-c3ncc4c(N5CC6CCC(C5)N6)nc(OCCCN5CCN(C(=O)CN6CCN(c7ccc8c(c7)C(=O)N(C7CCC(=O)NC7=O)C8=O)CC6)CC5)nc4c3F)c12` (centres unmarked) [Compound 60], the inhibition at 0.1 µM was not above 10% and the inhibition at 1 µM lay within 11 to 30%.

In the case of `C#Cc1c(F)ccc2cc(O)cc(-c3ncc4c(N5CC6CCC(C5)N6)nc(OCCCN5CCN(C(=O)CN6CCN(c7cccc8c7C(=O)N(C7CCC(=O)NC7=O)C8=O)CC6)CC5)nc4c3F)c12` (centres unmarked) [Compound 61], the inhibition at 0.1 µM is not above 10% and the inhibition at 1 µM was not above 10%. In the case of `C#Cc1c(F)ccc2cc(O)cc(-c3ncc4c(N5CC6CCC(C5)N6)nc(OCCCN5CCN(CC(=O)N6CCN(c7cccc8c7C(=O)N(C7CCC(=O)NC7=O)C8=O)CC6)CC5)nc4c3F)c12` (centres unmarked) [Compound 62], the inhibition at 0.1 µM was not above 10% and the inhibition at 1 µM was not above 10%. Turning to `C#Cc1c(F)ccc2cc(O)cc(-c3ncc4c(N5CC6CCC(C5)N6)nc(OCCCN5CCN(CC(=O)N6CCN(C(=O)C[C@H](NC(=O)[C@@H]7C[C@@H](O)CN7C(=O)[C@@H](NC(=O)C7(F)CC7)C(C)(C)C)c7ccc(-c8scnc8C)cc7)CC6)CC5)nc4c3F)c12` [Compound 63], the inhibition at 0.1 µM is not above 10% and the inhibition at 1 µM was 11 to 30%. On the same counts, the results for `C#Cc1c(F)ccc2cc(O)cc(-c3ncc4c(N5CC6CCC(C5)N6)nc(OCCCN5CCN(C(=O)C[C@H](NC(=O)[C@@H]6C[C@@H](O)CN6C(=O)[C@@H](NC(=O)C6(F)CC6)C(C)(C)C)c6ccc(-c7scnc7C)cc6)CC5)nc4c3F)c12` [Compound 64] are not above 10% and 11 to 30%. `CCc1c(F)ccc2cc(O)cc(-c3ncc4c(N5CC6CCC(C5)N6)nc(OCC56CCCN5[C@@H](COC(=O)NCCCCC(=O)N[C@H](C(=O)N5C[C@H](O)C[C@H]5C(=O)N[C@@H](C)c5ccc(-c7scnc7C)cc5)C(C)(C)C)CC6)nc4c3F)c12` (some centres unmarked) [Compound 67]: the inhibition at 0.1 µM is not above 10% and the inhibition at 1 µM was in the range of 31 to 60%. Turning to `CCc1c(F)ccc2cc(O)cc(-c3ncc4c(N5CC6CCC(C5)N6)nc(OCC56CCCN5[C@@H](COC(=O)NCCCCCCCC(=O)N[C@H](C(=O)N5C[C@H](O)C[C@H]5C(=O)N[C@@H](C)c5ccc(-c7scnc7C)cc5)C(C)(C)C)CC6)nc4c3F)c12` (some centres unmarked) [Compound 68], the inhibition at 0.1 µM lay within 31 to 60% and the inhibition at 1 µM is more than 60%. As for `C#Cc1c(F)ccc2cc(O)cc(-c3ncc4c(N5CC6CCC(C5)N6)nc(OC5CCN(CC(=O)N6CCN(C(=O)C[C@H](NC(=O)[C@@H]7C[C@@H](O)CN7C(=O)[C@@H](NC(=O)C7(F)CC7)C(C)(C)C)c7ccc(-c8scnc8C)cc7)CC6)CC5)nc4c3F)c12` [Compound 71], the inhibition at 0.1 µM is not above 10%.

In the case of `C#Cc1c(F)ccc2cc(O)cc(-c3ncc4c(N5CC6CCC(C5)N6)nc(OCCCN5CCC(C(=O)N6CCC(c7ccc8c(C9CCC(=O)NC9=O)nn(C)c8c7)CC6)CC5)nc4c3F)c12` (centres unmarked) [Compound 72], the inhibition at 0.1 µM is more than 60% and the inhibition at 1 µM was more than 60%.

As to `C#Cc1c(F)ccc2cc(O)cc(-c3ncc4c(N5CC6CCC(C5)N6)nc(OCCCN5CCN(CCC(=O)C6CCC(c7ccc8c(C9CCC(=O)NC9=O)nn(C)c8c7)CC6)CC5)nc4c3F)c12` (centres unmarked) [Compound 74], the inhibition at 0.1 µM was in the range of 31 to 60%. In the case of `C#Cc1c(F)ccc2cc(O)cc(-c3ncc4c(N5CC6CCC(C5)N6)nc(OCCCN5CCC(C(=O)N6CCC(N7CCC(c8ccc9c(C%10CCC(=O)NC%10=O)nn(C)c9c8)CC7)CC6)CC5)nc4c3F)c12` (centres unmarked) [Compound 75], the inhibition at 0.1 µM was more than 60%. Moreover, the 50% degradation concentration (DC50) (Aspc-1 cells, read-out: DC50 of test compound-induced KRAS^G12D protein degradation) is less than 10 nM.

In the case of `C#Cc1c(F)ccc2cc(O)cc(-c3ncc4c(N5CC6CCC(C5)N6)nc(OC5CCN(CCCCCCCCOc6cc(-c7ncsc7C)ccc6CNC(=O)[C@@H]6C[C@@H](O)CN6C(=O)[C@@H](NC(=O)C6(F)CC6)C(C)(C)C)CC5)nc4c3F)c12` [Compound 76], the inhibition at 0.1 µM was not above 10%. Consider `C#Cc1c(F)ccc2cc(O)cc(-c3ncc4c(N5CC6CCC(C5)N6)nc(OC5CCN(CCCCCCCCCCOc6cc(-c7ncsc7C)ccc6CNC(=O)[C@@H]6C[C@@H](O)CN6C(=O)[C@@H](NC(=O)C6(F)CC6)C(C)(C)C)CC5)nc4c3F)c12` [Compound 77], for which the inhibition at 0.1 µM was not above 10%.

Values taken from patent publication US20230321253A1, “BIFUNCTIONAL COMPOUNDS AND PHARMACEUTICAL USES THEREOF” (RISEN (SUZHOU) PHARMA TECH CO., LTD., priority 2022, published 2023).
